Test results reported in US9957271B2, “Substituted bicyclic aza-heterocycles and analogues as sirtuin modulators” (GlaxoSmithKline, LLC, priority 2012, dated 2018).
Like-named read-outs stand apart in the source and are kept apart here.

Target: T1, SIRT1 (Homo sapiens, UniProt Q96EB6)
T1 sequence (Q96EB6 1-747): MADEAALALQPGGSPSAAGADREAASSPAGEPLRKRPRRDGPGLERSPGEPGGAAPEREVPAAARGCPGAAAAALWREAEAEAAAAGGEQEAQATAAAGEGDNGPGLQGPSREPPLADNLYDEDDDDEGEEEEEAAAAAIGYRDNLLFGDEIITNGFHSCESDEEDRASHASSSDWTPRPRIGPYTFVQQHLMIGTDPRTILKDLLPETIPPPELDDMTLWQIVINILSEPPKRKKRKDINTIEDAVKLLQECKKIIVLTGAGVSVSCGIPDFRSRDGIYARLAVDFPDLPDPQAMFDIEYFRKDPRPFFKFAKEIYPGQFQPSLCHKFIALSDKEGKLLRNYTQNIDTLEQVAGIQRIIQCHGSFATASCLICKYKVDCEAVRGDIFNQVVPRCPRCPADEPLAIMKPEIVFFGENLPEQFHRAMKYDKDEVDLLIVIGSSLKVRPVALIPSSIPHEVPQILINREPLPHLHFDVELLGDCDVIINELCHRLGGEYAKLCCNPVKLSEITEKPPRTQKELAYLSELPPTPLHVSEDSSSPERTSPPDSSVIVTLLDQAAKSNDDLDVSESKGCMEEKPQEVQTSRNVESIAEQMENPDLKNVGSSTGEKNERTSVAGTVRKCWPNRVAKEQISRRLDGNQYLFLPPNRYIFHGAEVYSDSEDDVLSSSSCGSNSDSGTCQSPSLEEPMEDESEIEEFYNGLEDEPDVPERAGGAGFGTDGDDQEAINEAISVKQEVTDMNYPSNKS
Assay: TAMRA based mass spectrometry assay of SIRT1 activity
Assay type: biochemical
Conditions: for Emax: read-out: TAMRA % Fold Act
Procedure, shortened: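 Deacetylation of a biotinylated, TAMRA-tagged p53-based peptide (0.5 μM) by 10 nM His-tagged SIRT1 with 120 μM βNAD+, 25 °C for 25 min, pH 8 Tris-acetate buffer, across a compound concentration range. Quenched by formic acid and read by mass spec as product peptide or OAADPR; activity relative to DMSO reactions, nicotinamide defining maximal inhibition.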

[1] = TAMRA assay, concentration giving 150% activation of SIRT1
[2] = TAMRA assay, percent maximum fold activation
[3] = TAMRA peptide substrate, concentration giving 150% activation of SIRT1
[4] = TAMRA peptide substrate, percent maximum fold activation
[5] = concentration of test compound giving 150% activation of SIRT1, TAMRA peptide substrate
[6] = percent maximum fold activation of SIRT1, TAMRA peptide substrate

TAMRA EC1.5 (μM) [1] | Emax [2] | TAMRA EC1.5 (μM) [5] | Emax [6] | Structure (SMILES) | further results
C (EC1.5>25 μM) | < 350% |  |  | Cc1cc(NC(=O)c2c(O)nc3ccc(-c4ccccc4C(F)(F)F)nn23)cc(C)n1 [Compound 341] | 
B (EC1.5 1-25 μM) | < 350% |  |  | O=C(Nc1cnc2ccc(-c3ccccc3F)nn12)c1cscn1 [Compound 298] | 
A (EC1.5<1 μM) | ≥ 350% |  |  | Cc1ccnc(NC(=O)c2cnc3ccc(-c4ccccc4OC[C@H](O)CO)nn23)c1 [Compound 811] | 
A (EC1.5<1 μM) | ≥ 350% |  |  | O=C(Nc1cnc2ccc(-c3ccccc3Cl)nn12)c1cccc(N2CCOCC2)n1 [Compound 307] | 
B (EC1.5 1-25 μM) | ≥ 350% |  |  | Cc1cc(C)nc(NC(=O)c2c(C)nc3ccc(-c4ccccc4OC[C@H](O)CO)nn23)c1 [Compound 757] | 
A (EC1.5<1 μM) | ≥ 350% |  |  | Cc1nc2ccc(-c3ccccc3C(F)(F)F)nn2c1C(=O)Nc1nccc(N2CCCC2)n1 [Compound 669] | 
A (EC1.5<1 μM) | ≥ 350% |  |  | O=C(Nc1cnc2ccc(-c3ccccc3F)nn12)c1cccc(N2CCC2)n1 [Compound 302] | 
A (EC1.5<1 μM) | ≥ 350% |  |  | O=C(Nc1cnc2ccc(-c3ccccc3OC(F)(F)F)nn12)c1cccc(N2CCC2)n1 [Compound 322] | 
B (EC1.5 1-25 μM) | < 350% |  |  | CC(CO)(CO)Oc1nccc(NC(=O)c2cnc3ccc(-c4ccccc4C(F)(F)F)nn23)n1 [Compound 278] | 
A (EC1.5<1 μM) | ≥ 350% |  |  | Cc1cc(NC(=O)c2cnc3ccc(-c4ccccc4OC[C@H](O)CO)nn23)cc(C)n1 [Compound 805] | 
B (EC1.5 1-25 μM) | < 350% |  |  | O=C(Nc1cnc2ccc(-c3ccccc3Cl)nn12)c1nccs1 [Compound 294] | 
B (EC1.5 1-25 μM) | ≥ 350% |  |  | O=C(Nc1cncc(OCC(O)CO)n1)c1c(O)nc2ccc(-c3ccccc3C(F)(F)F)nn12 (stereo not drawn) [Compound 345] | 
A (EC1.5<1 μM) | ≥ 350% |  |  | CCOc1n[nH]c(NC(=O)c2c(C)nc3ccc(-c4ccccc4C(F)(F)F)nn23)n1 [Compound 676] | 
C (EC1.5>25 μM) | < 350% |  |  | Cc1nc2ccc(-c3ccccc3Cl)nn2c1NC(=O)c1ncccn1 [Compound 349] | 
A (EC1.5<1 μM) | ≥ 350% |  |  | O=C(Nc1cccc(CN2CC[C@@H](F)C2)n1)c1cnc2ccc(-c3ccccc3C(F)(F)F)nn12 [Compound 390] | 
A (EC1.5<1 μM) | ≥ 350% |  |  | Cc1cc(NC(=O)c2c(C)nn3ccc(-c4ccccc4C(F)(F)F)nc23)ccn1 [Compound 629] | 

The next lines start with the molecule.

Structure (SMILES) | TAMRA EC1.5 (μM) [1] | Emax [2] | TAMRA EC1.5 (μM) [5] | Emax [6] | further results
O=C(Nc1cccc(OCC(O)CO)n1)c1cnc2ccc(-c3ccccc3C(F)(F)F)nn12 (stereo not drawn) [Compound 212, N-(6-(2,3-dihydroxypropoxy)pyridin-2-yl)-6-(2-(trifluoromethyl)phenyl)imidazo[1,2-b]pyridazine-3-carboxamide] | A (EC1.5<1 μM) | ≥ 350% |  |  | 
Cc1cc(NC(=O)c2c(C)nc3c(C)cc(-c4ccccc4C(F)(F)F)nn23)ccn1 [Compound 459] |  |  |  |  | TAMRA EC1.5 [3]: A (EC1.5<1 μM); Emax [4]: ≥ 350%
O=C(Nc1cccnc1)c1cnc2ccc(-c3ccccc3F)nn12 [Compound 138] |  |  | B (EC1.5 1-25 μM) | < 350% | 
O=C(Nc1cccnc1)c1cnc2ccc(-c3ccccc3Cl)nn12 [Compound 118] |  |  | B (EC1.5 1-25 μM) | < 350% | 
O=C(Nc1nccs1)c1cnc2ccc(-c3ccccc3C(F)F)nn12 [Compound 33, 6-(2-(difluoromethyl)phenyl)-N-(thiazol-2-yl)imidazo[1,2-b]pyridazine-3-carboxamide] |  |  | B (EC1.5 1-25 μM) | < 350% | 
O=C(Nc1ccccn1)c1cnc2ccc(-c3ccccc3C(F)(F)F)nn12 [Compound 16] |  |  | A (EC1.5<1 μM) | ≥ 350% | 
O=C(Nc1cccc(N2CCCC2)n1)c1nnc2ccc(-c3ccccc3C(F)(F)F)nn12 [Compound 66] |  |  | A (EC1.5<1 μM) | ≥ 350% | 
Cc1cccnc1C(=O)Nc1cnc2ccc(-c3ccccc3C(F)(F)F)nn12 [Compound 232] | A (EC1.5<1 μM) | ≥ 350% |  |  | 
O=C(Nc1cccc(N2CCOCC2)n1)c1nnc2ccc(-c3ccccc3C(F)(F)F)nn12 [Compound 67] |  |  | A (EC1.5<1 μM) | ≥ 350% | 
O=C(Nc1cccc(OCC(F)(F)F)n1)c1cnc2ccc(-c3ccccc3C(F)(F)F)nn12 [Compound 264] | B (EC1.5 1-25 μM) | ≥ 350% |  |  | 
Cc1cccc(NC(=O)c2cnn3ccc(-c4ccccc4C(F)(F)F)nc23)n1 [Compound 500] |  |  |  |  | TAMRA EC1.5 [3]: A (EC1.5<1 μM); Emax [4]: ≥ 350%
O=C(Nc1ccccn1)c1cnc2ccc(-c3cccc(Cl)c3F)nn12 [Compound 142] |  |  | B (EC1.5 1-25 μM) | < 350% | 
Cc1noc(C)c1-c1ccc2ncc(C(=O)Nc3ccnc(N4CCCC4)c3)n2n1 [Compound 54, 6-(3,5-dimethylisoxazol-4-yl)-N-(2-(pyrrolidin-1-yl)pyridin-4-yl)imidazo[1,2-b]pyridazine-3-carboxamide] |  |  | C (EC1.5>25 μM) | < 350% | 
Cc1cccc(NC(=O)c2cnc3c(C)cc(-c4ccccc4C(F)(F)F)nn23)n1 [Compound 539] |  |  |  |  | TAMRA EC1.5 [3]: A (EC1.5<1 μM); Emax [4]: ≥ 350%
COc1cc(NC(=O)c2cnc3ccc(-c4ccccc4C(F)(F)F)nn23)nc(OC)n1 [Compound 196] |  |  | A (EC1.5<1 μM) | ≥ 350% | 
O=C(Nc1cccc(OCC(F)(F)F)n1)c1cnc2ccc(-c3ccccc3Cl)nn12 [Compound 262] | C (EC1.5>25 μM) | < 350% |  |  | 
O=C(Nc1ccnc(N2CC3(CCO3)C2)n1)c1cnc2ccc(-c3ccccc3C(F)(F)F)nn12 [Compound 592] |  |  |  |  | TAMRA EC1.5 [3]: A (EC1.5<1 μM); Emax [4]: ≥ 350%
O=C(Nc1cccc(N2CCC2)n1)c1cnc2ccc(-c3ccccc3C(F)(F)F)nn12 [Compound 49] |  |  | A (EC1.5<1 μM) | ≥ 350% | 
Cc1cc(OCC(O)CO)nc(NC(=O)c2cnc3ccc(-c4ccccc4C(F)(F)F)nn23)n1 (stereo not drawn) [Compound 76] |  |  | B (EC1.5 1-25 μM) | ≥ 350% | 
O=C(Nc1cnc2ccc(-c3ccccc3C(F)(F)F)nn12)c1ncccn1 [Compound 121] |  |  | A (EC1.5<1 μM) | ≥ 350% | 
Cc1nc2c(C)cc(-c3ccccc3OC(F)(F)F)nn2c1C(=O)Nc1ccc(F)cn1 [Compound 495] |  |  |  |  | TAMRA EC1.5 [3]: A (EC1.5<1 μM); Emax [4]: < 350%
O=C(Nc1ccnc(N2CCCC2)c1)c1cnc2ccc(-c3cncc(C(F)F)c3)nn12 [Compound 61] |  |  | B (EC1.5 1-25 μM) | < 350% | 
COc1cccc(NC(=O)c2cnc3ccc(-c4ccccc4C(F)(F)F)nn23)n1 [Compound 103] |  |  | A (EC1.5<1 μM) | ≥ 350% | 
